This is an account of results in publication PMC9135731 (Communications Biology, 2022).

In series [1] the target is T1, AviM (Streptomyces viridochromogenes, UniProt O05170).
T1 construct: expressed in E. coli BAP1 (sfp), phosphopantetheinylated with CoA and Sfp before assay
Nature of the series: LC-MS detection of orsellinic acid product. The class given is biochemical. The following applies: 50 uM enzyme, 10 mM MgCl2, pH 7.4, 25 °C, with CoA and Sfp.

Series [2] concerns the molecule itself. The series is described as follows: SEC; Superdex 200/Superose 6 gel filtration column, 150 mM NaCl, 10 mM Tris pH 7.5, 4 °C. For orientation: Size exclusion chromatography separates by hydrodynamic size, large species first.

T1 sequence (O05170 entry or part of it): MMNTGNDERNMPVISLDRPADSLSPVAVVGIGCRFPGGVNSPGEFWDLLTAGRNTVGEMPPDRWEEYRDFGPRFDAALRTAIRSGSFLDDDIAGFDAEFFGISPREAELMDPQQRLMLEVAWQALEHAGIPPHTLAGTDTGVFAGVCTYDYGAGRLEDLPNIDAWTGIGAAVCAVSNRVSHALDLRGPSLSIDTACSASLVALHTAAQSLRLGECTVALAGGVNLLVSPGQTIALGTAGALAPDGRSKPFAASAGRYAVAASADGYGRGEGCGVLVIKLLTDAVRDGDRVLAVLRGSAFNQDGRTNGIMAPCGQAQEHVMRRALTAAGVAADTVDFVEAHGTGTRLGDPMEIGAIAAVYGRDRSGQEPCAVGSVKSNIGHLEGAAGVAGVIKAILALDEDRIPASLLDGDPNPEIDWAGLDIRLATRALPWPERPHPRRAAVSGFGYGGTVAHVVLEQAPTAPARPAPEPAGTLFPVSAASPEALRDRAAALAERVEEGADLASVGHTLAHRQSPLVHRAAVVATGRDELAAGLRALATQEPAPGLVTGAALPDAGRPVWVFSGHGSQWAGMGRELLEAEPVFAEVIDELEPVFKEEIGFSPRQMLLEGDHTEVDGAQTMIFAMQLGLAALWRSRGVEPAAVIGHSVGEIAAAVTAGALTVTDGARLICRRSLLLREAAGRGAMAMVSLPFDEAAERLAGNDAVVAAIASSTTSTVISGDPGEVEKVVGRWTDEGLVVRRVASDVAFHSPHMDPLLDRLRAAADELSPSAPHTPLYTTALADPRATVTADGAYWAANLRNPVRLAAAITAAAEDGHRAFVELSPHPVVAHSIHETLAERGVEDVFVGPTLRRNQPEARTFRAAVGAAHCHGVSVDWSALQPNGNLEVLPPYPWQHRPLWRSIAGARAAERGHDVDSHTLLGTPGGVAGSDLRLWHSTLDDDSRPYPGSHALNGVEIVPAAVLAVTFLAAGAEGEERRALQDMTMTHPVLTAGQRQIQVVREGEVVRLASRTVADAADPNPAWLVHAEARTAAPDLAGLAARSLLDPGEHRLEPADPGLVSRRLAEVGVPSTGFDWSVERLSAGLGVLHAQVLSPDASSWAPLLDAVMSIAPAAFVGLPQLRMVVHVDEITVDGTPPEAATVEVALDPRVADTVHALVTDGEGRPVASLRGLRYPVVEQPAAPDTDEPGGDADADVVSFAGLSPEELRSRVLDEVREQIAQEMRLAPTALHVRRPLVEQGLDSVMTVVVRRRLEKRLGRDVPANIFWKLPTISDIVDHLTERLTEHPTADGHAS

Regarding `CC(=O)SCCNC(=O)CCNC(=O)[C@H](O)C(C)(C)COP(=O)(O)OP(=O)(O)OC[C@H]1O[C@@H](n2cnc3c(N)ncnc32)[C@H](O)[C@@H]1OP(=O)(O)O` [acetyl-CoA], the “LC-MS detection of orsellinic acid product” value in series [1] (starter unit, malonyl-CoA co-substrate) was “Trace amount of OSA was indeed produced when AviM was incubated with acetyl-CoA and malonyl-CoA”.
Regarding `CC(C)(COP(=O)(O)OP(=O)(O)OC[C@H]1O[C@@H](n2cnc3c(N)ncnc32)[C@H](O)[C@@H]1OP(=O)(O)O)[C@@H](O)C(=O)NCCC(=O)NCCSC(=O)CC(=O)O` [malonyl-CoA], in series [1] (extender unit, acetyl-CoA co-substrate), the “LC-MS detection of orsellinic acid product” value was “Trace amount of OSA was indeed produced when AviM was incubated with acetyl-CoA and malonyl-CoA”.

B1: AviM PT domain (product template domain of the orsellinic acid synthase AviM) (domain or fragment, Streptomyces viridochromogenes Tü57)
chain: DSHTLLGTPGGVAGSDLRLWHSTLDDDSRPYPGSHALNGVEIVPAAVLAVTFLAAGAEGEERRALQDMTMTHPVLTAGQRQIQVVREGEVVRLASRTVADAADPNPAWLVHAEARTAAPDLAGLAARSLLDPGEHRLEPADPGLVSRRLAEVGVPSTGFDWSVERLSAGLGVLHAQVLSPDASSWAPLLDAVMSIAPAAFVGLPQLRMVVHVDEITVDGTPPEAATVEVALDPRVADTVHALVTDGEGRPVASLRGLRYP
notes: AviM, orsellinic acid synthase (iterative type I PKS, KS-AT-PT-ACP) of Streptomyces viridochromogenes Tü57; excised PT domain cloned as an 816 bp NdeI/EcoRI fragment in pET28a; An 816 bp fragment codes for about 272 residues, more than the 260 of residues 915-1174; also called bacterial PT domain; source: E. coli BL21(DE3), purified (Nickel-NTA, gel filtration); not shown: His6, N-terminal, kept
B1: the stoichiometry N (commonly a count of units in the complex or per binding partner) in series [2] stood at 2.
